Results as given in ChEMBL document CHEMBL6182883, “Discovery of a series of novel 3-sulfonamido benzoic acid derivatives as promising P2Y14R antagonists for acute lung injury” (Eur J Med Chem, 2025).
Converted amounts (≈) assume the structure as drawn. One block for each compound: values may come before it. The source made the active and inactive calls. The rule behind the calls is not given here.

Legend:
[1] = biological target: T1, P2Y purinoceptor 14 (Homo sapiens) (UniProt Q15391); assay: Antagonist activity at human P2Y14R expressed in HEK293 cells assessed as inhibition of UDPG-induced Ca2+ level at 5 uM by Fluo-4 dye based fluorescence assay relative to control; format: functional, cell-based
T1 sequence (whole entry): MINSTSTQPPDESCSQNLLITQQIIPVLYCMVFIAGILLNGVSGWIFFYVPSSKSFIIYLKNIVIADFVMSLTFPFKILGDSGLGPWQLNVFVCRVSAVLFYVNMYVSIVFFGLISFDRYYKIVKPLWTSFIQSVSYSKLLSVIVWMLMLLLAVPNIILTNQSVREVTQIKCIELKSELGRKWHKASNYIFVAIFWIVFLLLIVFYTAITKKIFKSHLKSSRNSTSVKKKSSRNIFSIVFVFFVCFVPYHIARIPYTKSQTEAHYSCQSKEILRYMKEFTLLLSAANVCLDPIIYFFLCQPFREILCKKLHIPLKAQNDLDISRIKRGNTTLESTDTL

[2] = biological target: T2, P2Y purinoceptor 14 (Homo sapiens, UniProt Q15391); assay: Antagonist activity at human P2Y14R expressed in HEK293 cells assessed as inhibition of UDPG-induced Ca2+ level by Fluo-4 dye based fluorescence assay; format: functional, cell-based
T2 sequence (Q15391 whole entry): T1 sequence (whole entry)

[3] = tested on: Mus musculus; assay: (§1) Antiinflammatory activity in LPS-induced C57BL/6 mouse ALI model assessed as reduction in IL-1beta expression in BALF at 2 to 6 mg/kg, po administered once daily via gavage for 7 days followed by endotoxin challenge at 1 hr post last dose and subsequent LPS stimulation and measured after 24 hrs by ELISA; format: functional, organism-based; conditions: dose 2-6 mg/kg, time 8.0 day
[4] = Clearance in SD […] at 10 mg/kg, po; format: ADME, organism-based; conditions: in vivo
[5] = AUC (0 to 24 hrs) in SD […] at 10 mg/kg, po; format: ADME, organism-based; conditions: in vivo
[6] = Half life in SD […] at 10 mg/kg, po; format: ADME, organism-based; conditions: in vivo
[7] = Half life in SD […] at 5 mg/kg, iv; format: ADME, organism-based; conditions: in vivo
[8] = Cmax in SD […] at 10 mg/kg, po; format: ADME, organism-based; conditions: in vivo
[9] = tested on: Mus musculus; assay: as §1, with “interstitial hemorrhage” for “IL-1beta expression in BALF”, “2” for “2 to 6”, “H and E staining based histopathological assay” for “ELISA”; format: functional, organism-based; conditions: time 8.0 day
[10] = Oral bioavailability in SD […] at 10 mg/kg; format: ADME, organism-based; conditions: in vivo
[11] = tested on: Mus musculus; assay: Antiinflammatory activity in LPS-induced C57BL/6 mouse ALI model assessed as reduction in IL-6 expression in BALF at 2 to 6 mg/kg, po administered once daily via gavage for 7 days followed by endotoxin challenge at 1 hr post last dose and subsequent LPS stimulation and measured after 24 hrs by ELISA; format: functional, organism-based; conditions: dose 2-6 mg/kg, time 8.0 day
[12] = Cmax in SD […] at 5 mg/kg, iv; format: ADME, organism-based; conditions: in vivo
[13] = tested on: Mus musculus; assay: as §1, with “inflammatory response” for “IL-1beta expression”, “lung” for “BALF at 2 to 6 mg/kg, po”, “via oral” for “via”, “H and E staining based histopathological assay” for “ELISA”; format: functional, organism-based; conditions: dose 2-6 mg/kg, time 8.0 day
[14] = Tmax in SD […] at 5 mg/kg, iv; format: ADME, organism-based; conditions: in vivo
[15] = Tmax in SD […] at 10 mg/kg, po; format: ADME, organism-based; conditions: in vivo
[16] = tested on: Mus musculus; assay: as §1, with “TNF-alpha” for “IL-1beta”; format: functional, organism-based; conditions: dose 2-6 mg/kg, time 8.0 day
[17] = tested on: Mus musculus; assay: as §1, with “alveolar wall thickening” for “IL-1beta expression in BALF”, “at” for “at 2 to”, “H and E staining based histopathological assay” for “ELISA”; format: functional, organism-based; conditions: time 8.0 day
[18] = Aqueous solubility of the compound in pH 4 PBS buffer measured after 24 hrs by shake flask method; format: physicochemical
[19] = tested on: Mus musculus; assay: as §1, with “interstitial hemorrhage” for “IL-1beta expression in BALF”, “at” for “at 2 to”, “H and E staining based histopathological assay” for “ELISA”; format: functional, organism-based; conditions: time 8.0 day
[20] = tested on: Mus musculus; assay: as §1, with “neutrophil infiltration” for “IL-1beta expression in BALF”, “at” for “at 2 to”, “H and E staining based histopathological assay” for “ELISA”; format: functional, organism-based; conditions: time 8.0 day
[21] = Aqueous solubility of the compound in pH 7.4 PBS buffer measured after 24 hrs by shake flask method; format: physicochemical
[22] = biological target: T1, P2Y purinoceptor 14 (Homo sapiens); assay: (§2) Binding affinity to P2Y14R (unknown origin) assessed as increase in response unit by surface plasmon resonance assay; conditions: filed as antagonist
[23] = biological target: T2, P2Y purinoceptor 14; assay: as §2
[24] = AUC (0 to 24 hrs) in SD […] at 5 mg/kg, iv; format: ADME, organism-based; conditions: in vivo
[25] = tested on: Mus musculus; assay: (§3) Antiinflammatory activity in LPS-induced C57BL/6 mouse ALI model assessed as reduction in MPO level in BALF at 6 mg/kg, po administered once daily via gavage for 7 days followed by endotoxin challenge at 1 hr post last dose and subsequent LPS stimulation and measured after 24 hrs by ELISA; format: functional, organism-based; conditions: time 8.0 day
[26] = tested on: Mus musculus; assay: as §1, with “neutrophil infiltration” for “IL-1beta expression in BALF”, “2” for “2 to 6”, “H and E staining based histopathological assay” for “ELISA”; format: functional, organism-based; conditions: time 8.0 day
[27] = tested on: Mus musculus; assay: as §3, with “appearance of intact alveolar structures” for “reduction in MPO level in BALF”, “H and E staining based histopathological assay” for “ELISA”; format: functional, organism-based; conditions: time 8.0 day

Structure (SMILES): CC(C)c1ccc(S(=O)(=O)Nc2cc(C(=O)O)cc(-c3ccc(C4CCNCC4)cc3)c2)cc1
inhibition ([1]; filed as antagonist): 69.5%

Structure (SMILES): O=C(O)c1cc(NS(=O)(=O)c2ccc([N+](=O)[O-])cc2)cc(-c2ccc(C3CCNCC3)cc2)c1
inhibition ([1]; filed as antagonist): 82.6%

Structure (SMILES): CC(C)(C)c1ccc(S(=O)(=O)Nc2cc(C(=O)O)cc(-c3ccc(C4CCNCC4)cc3)c2)cc1
inhibition ([1]; filed as antagonist): 49.6%

Structure (SMILES): O=C(O)c1cc(NS(=O)(=O)c2ccc(-c3ccc(Br)cc3)cc2)cc(-c2ccc(C3CCNCC3)cc2)c1
inhibition ([1]; filed as antagonist): 68.9%

Structure (SMILES): O=C(O)c1cc(NS(=O)(=O)c2cccc(F)c2)cc(-c2ccc(C3CCNCC3)cc2)c1
inhibition ([1]; filed as antagonist): 76.2%

Structure (SMILES): O=C(O)c1cc(NS(=O)(=O)c2ccc(-c3ccc(F)cc3)cc2)cc(-c2ccc(C3CCNCC3)cc2)c1
inhibition ([1]; filed as antagonist): 59.7%

Structure (SMILES): O=C(O)c1cc(NS(=O)(=O)c2ccccc2F)cc(-c2ccc(C3CCNCC3)cc2)c1
inhibition ([1]; filed as antagonist): 82.3%

Structure (SMILES): O=C(O)c1cc(NS(=O)(=O)c2ccc(C(F)(F)F)cc2)cc(-c2ccc(C3CCNCC3)cc2)c1
inhibition ([1]; filed as antagonist): 90.8%
IC50 [2]: 23.2 nM

Structure (SMILES): COc1ccc(S(=O)(=O)Nc2cc(C(=O)O)cc(-c3ccc(C4CCNCC4)cc3)c2)cc1OC
inhibition [1]: 23.5%

Structure (SMILES): O=C(O)c1cc(NS(=O)(=O)c2ccc(-c3ccccc3)cc2)cc(-c2ccc(C3CCNCC3)cc2)c1
inhibition ([1]; filed as antagonist): 60.5%

Further lines, with some results ahead:

inhibition ([1]; filed as antagonist): 86.4%
IC50 [2]: 38.2 nM
Structure (SMILES): O=C(O)c1cc(NS(=O)(=O)CCc2ccccc2F)cc(-c2ccc(C3CCNCC3)cc2)c1

inhibition ([1]; filed as antagonist): 96.5%
IC50 [2]: 24.2 nM
Structure (SMILES): O=C(O)c1cc(NS(=O)(=O)Cc2ccc(C(F)(F)F)cc2)cc(-c2ccc(C3CCNCC3)cc2)c1

inhibition ([1]; filed as antagonist): 83.1%
Structure (SMILES): O=C(O)c1cc(NS(=O)(=O)Cc2ccc(Br)cc2)cc(-c2ccc(C3CCNCC3)cc2)c1

inhibition ([1]; filed as antagonist): 80.6%
Structure (SMILES): O=C(O)c1cc(NS(=O)(=O)Cc2ccccc2F)cc(-c2ccc(C3CCNCC3)cc2)c1

inhibition ([1]; filed as antagonist): 99.6%
CL/F [4]: 18.6 mL/min/kg
AUC(0-t) [5]: 2170 ng·h/mL
half-life [6]: 270 min
half-life [7]: 156 min
Cmax [8]: 984 ng/mL
bioavailability [10]: 44%
Cmax [12]: 731 ng/mL
Tmax [14]: 56 min
IC50 [2]: 5.6 nM
Tmax [15]: 1.55 h
solubility thermodynamic at 24 h [18]: 127 µg/mL (≈ 238 µM)
solubility thermodynamic at 24 h [21]: 108 µg/mL (≈ 203 µM)
Activity [22]: Dose-dependent-effect
Kd [23]: 1730 nM
AUC [24]: 1764 µg·h/L
Structure (SMILES): O=C(O)c1cc(NS(=O)(=O)CCc2ccc(C(F)(F)F)cc2)cc(-c2ccc(C3CCNCC3)cc2)c1
Activity [3]: Active
Activity [9]: Not active; No Significant Interstitial Hemorrhage Observed
Activity [11]: Active
Activity [13]: Dose-dependent-effect
Activity [16]: Active
Activity [17]: Active
Activity [19]: Active; Substantial Reduction Observed
Activity [20]: Active
Activity [25]: Active
Activity [26]: Active
Activity [27]: Active

inhibition ([1]; filed as antagonist): 80.1%
Structure (SMILES): O=C(O)c1cc(NS(=O)(=O)Cc2ccc(Cl)cc2)cc(-c2ccc(C3CCNCC3)cc2)c1

inhibition ([1]; filed as antagonist): 82.7%
Structure (SMILES): O=C(O)c1cc(NS(=O)(=O)CCc2ccccc2)cc(-c2ccc(C3CCNCC3)cc2)c1

inhibition ([1]; filed as antagonist): 80.9%
Structure (SMILES): O=C(O)c1cc(NS(=O)(=O)c2ccc(Cl)cc2)cc(-c2ccc(C3CCNCC3)cc2)c1

inhibition ([1]; filed as antagonist): 88.6%
IC50 [2]: 20.6 nM
Structure (SMILES): O=C(O)c1cc(NS(=O)(=O)Cc2ccc([N+](=O)[O-])cc2)cc(-c2ccc(C3CCNCC3)cc2)c1
